Test results from patent US20250197409A1, “BIFUNCTIONAL COMPOUND AND PHARMACEUTICAL COMPOSITION COMPRISING THE BIFUNCTIONAL COMPOUND, AND METHOD FOR TREATING ANDROGEN RECEPTOR RELATED DISEASE BY USING THE SAME” (ANHORN MEDICINES CO., LTD., priority 2022, published 2025).
Like-named read-outs stand apart in the source and are kept apart here.

Target: T1, androgen receptor (Homo sapiens, UniProt P10275, T878A)
T1 construct: host or cells: LNCaP.FGC
Experiment: Androgen receptor degradation assay using Western blot analysis
Format: cell-based
Method in brief: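 LNCaP.FGC cells (2×10^5/well) treated with 10-fold serial dilutions in RPMI from 100 nM stock; untreated cells as negative control. AR Western signal normalized to GAPDH, expressed as % remaining versus untreated (100%). DC50 derived from calibration curve of serial dilutions.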

[1] = 24 h, read-out: Androgen Receptor Remaining (%), LNCaP.FGC cells, 100 nM, 24 hr, normalized to GAPDH, untreated cells = 100%
[2] = read-out: AR DC50 (concentration needed for 50% AR degradation); LNCaP.FGC cells, serial 10x dilutions from 100 nM
[3] = 24 h, LNCaP.FGC cells, 100 nM, 24 hr, normalized to GAPDH, untreated cells = 100%; read-out: Androgen Receptor Remaining (%)
[4] = LNCaP.FGC cells, serial 10x dilutions from 100 nM; read-out: AR DC50 (concentration needed for 50% AR degradation)
[5] = LNCaP.FGC cells, 100 nM, 24 hr, normalized to GAPDH, untreated cells = 100%

T1 sequence (P10275 whole entry T878A): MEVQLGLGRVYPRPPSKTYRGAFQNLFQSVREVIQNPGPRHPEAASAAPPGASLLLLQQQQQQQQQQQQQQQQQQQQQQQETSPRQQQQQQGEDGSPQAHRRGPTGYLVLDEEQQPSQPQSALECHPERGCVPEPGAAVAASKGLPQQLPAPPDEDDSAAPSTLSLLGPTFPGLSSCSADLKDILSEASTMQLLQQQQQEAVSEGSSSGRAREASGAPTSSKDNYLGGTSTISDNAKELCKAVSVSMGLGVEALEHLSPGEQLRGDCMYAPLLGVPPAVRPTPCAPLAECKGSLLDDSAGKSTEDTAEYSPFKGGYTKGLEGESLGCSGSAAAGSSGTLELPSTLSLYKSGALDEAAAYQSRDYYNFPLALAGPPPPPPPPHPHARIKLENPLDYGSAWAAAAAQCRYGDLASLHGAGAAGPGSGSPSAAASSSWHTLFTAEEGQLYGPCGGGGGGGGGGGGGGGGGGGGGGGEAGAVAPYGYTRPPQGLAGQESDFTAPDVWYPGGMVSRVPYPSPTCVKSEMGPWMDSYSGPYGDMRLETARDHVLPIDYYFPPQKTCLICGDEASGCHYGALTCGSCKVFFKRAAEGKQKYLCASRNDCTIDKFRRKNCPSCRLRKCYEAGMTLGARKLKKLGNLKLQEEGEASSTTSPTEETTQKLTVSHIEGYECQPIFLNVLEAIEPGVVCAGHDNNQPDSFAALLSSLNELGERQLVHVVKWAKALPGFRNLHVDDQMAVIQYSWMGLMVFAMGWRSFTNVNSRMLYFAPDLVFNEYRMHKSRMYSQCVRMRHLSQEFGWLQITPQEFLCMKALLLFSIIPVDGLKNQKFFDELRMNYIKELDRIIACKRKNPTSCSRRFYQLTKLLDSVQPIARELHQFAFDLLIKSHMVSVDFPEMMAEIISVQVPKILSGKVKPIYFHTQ
T1 sequence (Q96SW2 whole entry partner): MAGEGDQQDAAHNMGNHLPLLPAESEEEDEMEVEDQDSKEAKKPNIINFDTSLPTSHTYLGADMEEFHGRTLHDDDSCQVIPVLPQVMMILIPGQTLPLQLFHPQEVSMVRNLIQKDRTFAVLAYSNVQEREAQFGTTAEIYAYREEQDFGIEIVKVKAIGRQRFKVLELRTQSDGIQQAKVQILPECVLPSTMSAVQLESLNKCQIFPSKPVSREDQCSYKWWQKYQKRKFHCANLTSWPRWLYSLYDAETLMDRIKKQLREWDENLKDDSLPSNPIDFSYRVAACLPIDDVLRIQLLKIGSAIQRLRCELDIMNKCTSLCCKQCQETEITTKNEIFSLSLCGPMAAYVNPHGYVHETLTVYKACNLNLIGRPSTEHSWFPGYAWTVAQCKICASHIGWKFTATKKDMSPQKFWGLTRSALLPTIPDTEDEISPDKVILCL

SMILES | remaining activity at 0.1 µM [1] | DC50 [2] | other results
CCn1c2c(c3ccc(OCCCN4CC5CCC(C4)N5c4ccc(C(=O)N[C@H]5CC[C@H](Oc6ccc(C#N)c(Cl)c6)CC5)nn4)cc31)C(=O)N(C1CCC(=O)NC1=O)C2=O (some centres unmarked) [Compound 71] | 77% |  | 
CCn1c2c(c3ccc(OCCCN4CCN(c5ncc(C(=O)N[C@H]6CC[C@H](Oc7ccc(C#N)c(Cl)c7)CC6)cn5)CC4)cc31)C(=O)N(C1CCC(=O)NC1=O)C2=O (some centres unmarked) [Compound 220] |  | 25 to 100 nM | 
CCn1c2c(c3ccc(OCCN4CCC(C5CCN(c6ccc(C(=O)N[C@H]7CC[C@H](Oc8ccc(C#N)c(Cl)c8)CC7)nn6)CC5)CC4)cc31)C(=O)N(C1CCC(=O)NC1=O)C2=O (some centres unmarked) [Compound 158] | 13% | 10 to 25 nM | 
CCn1c2c(c3ccc(OCCCN4C5CCC4CN(c4ccc(C(=O)N[C@H]6CC[C@H](Oc7ccc(C#N)c(Cl)c7)CC6)nn4)C5)cc31)C(=O)N(C1CCC(=O)NC1=O)C2=O (some centres unmarked) [Compound 47] | 19% | 10 to 25 nM | 
CCn1c2c(c3ccc(OCCN4CCN(c5ccc(C(=O)N[C@H]6CC[C@H](Oc7ccc(C#N)c(Cl)c7)CC6)nn5)[C@@H](C)C4)cc31)C(=O)N(C1CCC(=O)NC1=O)C2=O (some centres unmarked) [Compound 57] | 53% |  | 
Cn1c2c(c3ccc(OCCCN4CCN(c5ccc(C(=O)N[C@H]6C(C)(C)[C@H](Oc7ccc(C#N)c(Cl)c7)C6(C)C)cc5)CC4)cc31)C(=O)N(C1CCC(=O)NC1=O)C2=O (some centres unmarked) [Compound 12] |  |  | remaining activity at 0.1 µM [3]: 42%; DC50 [4]: 25 to 100 nM
CCn1c2c(c3ccc(OCCCN4CCN(c5ccc(C(=O)N[C@H]6CC[C@H](Oc7ccc(C#N)c(Cl)c7)CC6)nn5)CC4)cc31)C(=O)N(C1CCC(=O)NC1=O)C2=O (some centres unmarked) [Compound 205] |  | < 10 nM | 
Cn1c2c(c3ccc(OCCCN4CCC5(CC4)CCN(c4ccc(C(=O)N[C@H]6CC[C@H](Oc7ccc(C#N)c(Cl)c7)CC6)nn4)CC5)cc31)C(=O)N(C1CCC(=O)NC1=O)C2=O (some centres unmarked) [Compound 194] |  |  | DC50 [4]: 10 to 25 nM
Cn1c2c(c3ccc(OC4CCN(CC5CCN(c6ccc(C(=O)N[C@H]7C(C)(C)[C@H](Oc8ccc(C#N)c(Cl)c8)C7(C)C)cc6)CC5)CC4)cc31)C(=O)N(C1CCC(=O)NC1=O)C2=O (some centres unmarked) [Compound 219] |  |  | DC50 [4]: 25 to 100 nM
CCn1c2c(c3ccc(OCC(=O)N4CCN(c5ccc(C(=O)N[C@H]6CC[C@H](Oc7ccc(C#N)c(Cl)c7)CC6)nn5)CC4)cc31)C(=O)N(C1CCC(=O)N(CO)C1=O)C2=O (some centres unmarked) [Compound 120] | 48% | 25 to 100 nM | 
CCn1c2c(c3ccc(OCCCN4CC5(CCN(c6ccc(C(=O)N[C@H]7CC[C@H](Oc8ccc(C#N)c(Cl)c8)CC7)nn6)CC5)C4)cc31)C(=O)N(C1CCC(=O)NC1=O)C2=O (some centres unmarked) [Compound 72] |  | < 10 nM | Androgen Receptor Remaining (%) [5]: 26%
CCn1c2c(c3ccc(OC4CCN(CC5CCN(c6ccc(C(=O)N[C@H]7C(C)(C)[C@H](Oc8ccc(C#N)c(Cl)c8)C7(C)C)nn6)CC5)CC4)cc31)C(=O)N(C1CCC(=O)NC1=O)C2=O (some centres unmarked) [Compound 212] |  | 25 to 100 nM | 
CCn1c2c(c3ccc(OCCN4CCN(c5ccc(C(=O)N[C@H]6CC[C@H](Oc7ccc(C#N)c(Cl)c7)CC6)cc5)CC4)cc31)C(=O)N(C1CCC(=O)NC1=O)C2=O (some centres unmarked) [Compound 32] | 59% |  | 
Cn1c2c(c3ccc(NC(=O)CN4CCN(c5ccc(C(=O)N[C@H]6C(C)(C)[C@H](Oc7ccc(C#N)c(Cl)c7)C6(C)C)cn5)CC4)cc31)C(=O)N(C1CCC(=O)NC1=O)C2=O (some centres unmarked) [Compound 42] |  |  | remaining activity at 0.1 µM [3]: 30%; DC50 [4]: 10 to 25 nM
CCn1c2c(c3ccc(OCCCOC4CC5(CCN(c6ccc(C(=O)N[C@H]7CC[C@H](N(C)c8ccc(C#N)c(Cl)c8)CC7)nn6)C5)C4)cc31)C(=O)N(C1CCC(=O)NC1=O)C2=O (some centres unmarked) [Compound 177] |  | 25 to 100 nM | 
CCn1c2c(c3ccc(OCCCN4CC5(CCN(c6ccc(C(=O)N[C@H]7CC[C@H](Oc8ccc(C#N)c(Cl)c8)CC7)nn6)CC5)C4)cc31)C(=O)N(C1CCC(=O)NC1=O)C2=O (some centres unmarked) [Compound 96] |  | 10 to 25 nM | Androgen Receptor Remaining (%) [5]: 1%
CCn1c2c(c3ccc(OCCCCN4CCN(c5ccc(C(=O)N[C@H]6CC[C@H](Oc7ccc(C#N)c(Cl)c7)CC6)nn5)CC4)cc31)C(=O)N(C1CCC(=O)NC1=O)C2=O (some centres unmarked) [Compound 89] | 7% | < 10 nM | 
CCn1c2c(c3ccc(OCCCN4CC5(CCN(c6ccc(C(=O)N[C@H]7CC[C@H](Oc8ccc(C#N)c(Cl)c8)CC7)nn6)CC5)C4)cc31)C(=O)N(C1CCC(=O)N(CO)C1=O)C2=O (some centres unmarked) [Compound 95] | 1% | 10 to 25 nM | 

SMILES | remaining activity at 0.1 µM [1] | DC50 [2] | other results
CCn1c2c(c3ccc(OCC(=O)N4CCC5(CC4)CN(c4ccc(C(=O)N[C@H]6CC[C@H](N(C)c7ccc(C#N)c(Cl)c7)CC6)nn4)C5)cc31)C(=O)N(C1CCC(=O)NC1=O)C2=O (some centres unmarked) [Compound 129] | 63% |  | 
CCn1c2c(c3ccc(NC(=O)CN4CCN(c5ccc(C(=O)N[C@H]6C(C)(C)[C@H](Oc7ccc(C#N)c(Cl)c7)C6(C)C)cn5)CC4)cc31)C(=O)N(C1CCC(=O)NC1=O)C2=O (some centres unmarked) [Compound 56] | 4% | 25 to 100 nM | 
Cn1c2c(c3ccc(OCCCCOC4CCN(c5ccc(C(=O)N[C@H]6CC[C@H](N(C)c7ccc(C#N)c(Cl)c7)CC6)nn5)CC4)cc31)C(=O)N(C1CCC(=O)NC1=O)C2=O (some centres unmarked) [Compound 186] |  | 10 to 25 nM | 
CCn1c2c(c3ccc(OCCN4CCN(c5ccc(C(=O)N[C@H]6CC[C@H](Oc7ccc(C#N)c(Cl)c7)CC6)cn5)CC4)cc31)C(=O)N(C1CCC(=O)NC1=O)C2=O (some centres unmarked) [Compound 31] | 47% | 25 to 100 nM | 
CCn1c2c(c3ccc(OC4CCN(CC5CN(c6ccc(C(=O)N[C@H]7CC[C@H](Oc8ccc(C#N)c(Cl)c8)CC7)nn6)C5)CC4)cc31)C(=O)N(C1CCC(=O)NC1=O)C2=O (some centres unmarked) [Compound 210] |  | 10 to 25 nM | 
Cn1c2c(c3ccc(OCCN4CCN(c5ccc(C(=O)N[C@H]6C(C)(C)[C@H](Oc7ccc(C#N)c(Cl)c7)C6(C)C)nc5)CC4)cc31)C(=O)N(C1CCC(=O)NC1=O)C2=O (some centres unmarked) [Compound 9] |  |  | remaining activity at 0.1 µM [3]: 73%; DC50 [4]: > 100 nM
CCn1c2c(c3ccc(OCCCCN4CCN(c5ccc(C(=O)N[C@H]6CC[C@H](Oc7ccc(C#N)c(Cl)c7)CC6)nn5)CC4=O)cc31)C(=O)N(C1CCC(=O)NC1=O)C2=O (some centres unmarked) [Compound 149] | 11% |  | 
CCn1c2c(c3ccc(OCC(=O)NCC4CCN(c5ccc(C(=O)N[C@H]6CC[C@H](N(C)c7ccc(C#N)c(Cl)c7)CC6)nn5)CC4)cc31)C(=O)N(C1CCC(=O)NC1=O)C2=O (some centres unmarked) [Compound 142] | 49% | 25 to 100 nM | 
CCCn1c2c(c3ccc(OCCCN4CCN(c5ccc(C(=O)N[C@H]6C(C)(C)[C@H](Oc7ccc(C#N)c(Cl)c7)C6(C)C)cn5)CC4)cc31)C(=O)N(C1CCC(=O)NC1=O)C2=O (some centres unmarked) [Compound 22] | 89% |  | 
CCn1c2c(c3ccc(OCCOCCN4CCN(c5ccc(C(=O)N[C@H]6CC[C@H](Oc7ccc(C#N)c(Cl)c7)CC6)nn5)CC4)cc31)C(=O)N(C1CCC(=O)NC1=O)C2=O (some centres unmarked) [Compound 113] | 26% | 10 to 25 nM | 
CCn1c2c(c3ccc(OCCCN4CCN(c5ccc(C(=O)N[C@H]6C(C)(C)[C@H](Oc7ccc(C#N)c(Cl)c7)C6(C)C)cn5)CC4)cc31)C(=O)N(C1CCC(=O)NC1=O)C2=O (some centres unmarked) [Compound 20] | 63% |  | 
CCn1c2c(c3ccc(OCCN4CCC5(CC4)CCN(c4ccc(C(=O)N[C@H]6CC[C@H](Oc7ccc(C#N)c(Cl)c7)CC6)nn4)CC5)cc31)C(=O)N(C1CCC(=O)NC1=O)C2=O (some centres unmarked) [Compound 182] |  | < 10 nM | 
CCn1c2c(c3ccc(OCCOC4CCN(c5ccc(C(=O)N[C@H]6CC[C@H](N(C)c7ccc(C#N)c(Cl)c7)CC6)nn5)CC4)cc31)C(=O)N(C1CCC(=O)NC1=O)C2=O (some centres unmarked) [Compound 154] | 33% | 10 to 25 nM | 
Cn1c2c(c3ccc(OCCCN4CCN(c5ccc(C(=O)N[C@H]6C(C)(C)[C@H](Oc7ccc(C#N)c(Cl)c7)C6(C)C)nn5)CC4)cc31)C(=O)N(C1CCC(=O)NC1=O)C2=O (some centres unmarked) [Compound 40] |  |  | remaining activity at 0.1 µM [3]: 29%; DC50 [4]: > 100 nM
Cn1c2c(c3ccc(NC(=O)CN4CCCN(c5ccc(C(=O)N[C@H]6CC[C@H](Oc7ccc(C#N)c(Cl)c7)CC6)nn5)CC4)cc31)C(=O)N(C1CCC(=O)NC1=O)C2=O (some centres unmarked) [Compound 68] |  |  | remaining activity at 0.1 µM [3]: 81%
CCn1c2c(c3ccc(OCCN4CCCN(c5ccc(C(=O)N[C@H]6CC[C@H](N(C)c7ccc(C#N)c(Cl)c7)CC6)nn5)CC4)cc31)C(=O)N(C1CCC(=O)NC1=O)C2=O (some centres unmarked) [Compound 110] | 34% | 10 to 25 nM | 
CCn1c2c(c3ccc(OCCCN4CCN(c5ccc(C(=O)N[C@H]6C(C)(C)[C@H](Oc7ccc(C#N)c(Cl)c7)C6(C)C)cc5)CC4)cc31)C(=O)N(C1CCC(=O)NC1=O)C2=O (some centres unmarked) [Compound 21] | 92% |  | 
CCn1c2c(c3ccc(OCCC4CCN(c5ccc(C(=O)N[C@H]6CC[C@H](Oc7ccc(C#N)c(Cl)c7)CC6)nn5)CC4)cc31)C(=O)N(C1CCC(=O)NC1=O)C2=O (some centres unmarked) [Compound 2] | 56% |  | 
